Patent US9156801B2, “2-substituted oleanolic acid derivative, method preparing for same, and application thereof” (HANGZHOU BENSHENG PHARMACEUTICAL CO., LTD., priority 2011, dated 2015)
Converted amounts (≈) assume the structure as drawn.

Assays:
[1] = system: H9 cell line; test: leukemia cell growth inhibition, MTT; type: cell-based; details: Homo sapiens; for IC50: H9, 72 h; for inhibition at 16 µg/mL: H9, 16 μg/mL compound, 72 h, read-out: IR (cell proliferation inhibition rate)
Outline: (§1)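 6000 cells per well in RPMI 1640 with 10% FBS were exposed to the oleanolic acid derivatives at a range of concentrations for 72 h at 37 °C, 5% CO2. Viable cells were measured by MTT, with untreated control inhibition set at 0%.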

[2] = system: NB4 cell line; test: leukemia cell growth inhibition, MTT; type: cell-based; details: Homo sapiens, NB-4; for inhibition at 16 µg/mL: NB4, 16 μg/mL compound, 72 h, read-out: IR (cell proliferation inhibition rate); for IC50: NB4, 72 h
Outline: as §1

[3] = system: Jurkat cell line; test: leukemia cell growth inhibition, MTT; type: cell-based; details: Homo sapiens, 72 h; for inhibition at 16 µg/mL: 16 μg/mL compound, read-out: IR (cell proliferation inhibition rate)
Outline: as §1

[4] = system: K562/adr cell line; test: leukemia cell growth inhibition, MTT; type: cell-based; details: Homo sapiens, 72 h; for IC50: K562/Adr; for inhibition at 16 µg/mL: K562/adr, 16 μg/mL compound, read-out: IR (cell proliferation inhibition rate)
Outline: as §1

[5] = system: Kasumi-1 cell line; test: leukemia cell growth inhibition, MTT; type: cell-based; details: Homo sapiens; for inhibition at 16 µg/mL: Kasumi-1, 16 μg/mL compound, 72 h, read-out: IR (cell proliferation inhibition rate); for IC50: Kasumi-1, 72 h
Outline: as §1

[6] = system: RPMI8226 cell line; test: multiple myeloma cell growth inhibition, MTT; type: cell-based; details: Homo sapiens, RPMI-8226; for inhibition at 16 µg/mL: RPMI8226, 16 μg/mL compound, 72 h, read-out: IR (cell proliferation inhibition rate); for IC50: RPMI8226, 72 h
Outline: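 RPMI8226 cells (6000 per well) in RPMI 1640 with 10% FBS were exposed to several concentrations of compound for 72 h at 37° C and 5% CO2. Viable cells were quantified by MTT, with inhibition set to 0% in untreated controls.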

[7] = system: PC-3 cell line; test: solid tumor cell growth inhibition, MTT; type: cell-based; details: Homo sapiens; for IC50: PC-3, 72 h; for inhibition at 16 µg/mL: PC-3, 16 μg/mL compound, 72 h, read-out: IR (cell proliferation inhibition rate)
Outline: (§2)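 Cells grown in DMEM high glucose supplemented with 10% fetal bovine serum were plated at 4000 per well. After 24 h at 37° C in 5% CO2, varying compound concentrations were added for a further 72 h before MTT determination of viable cells.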

[8] = system: CaES-17 cell line; test: solid tumor cell growth inhibition, MTT; type: cell-based; details: Homo sapiens, CaEs17; for inhibition at 16 µg/mL: CaES-17, 16 μg/mL compound, 72 h, read-out: IR (cell proliferation inhibition rate); for IC50: CaES-17, 72 h
Outline: as §2

[9] = system: Becap37 cell line; test: solid tumor cell growth inhibition, MTT; type: cell-based; details: Homo sapiens; for inhibition at 16 µg/mL: Becap37, 16 μg/mL compound, 72 h, read-out: IR (cell proliferation inhibition rate); for IC50: Becap37, 72 h
Outline: as §2

[10] = system: Hela cell line; test: solid tumor cell growth inhibition, MTT; type: cell-based; details: Homo sapiens, 72 h; for IC50: HeLa; for inhibition at 16 µg/mL: Hela, 16 μg/mL compound, read-out: IR (cell proliferation inhibition rate)
Outline: as §2

[11] = system: A549 cell line; test: solid tumor cell growth inhibition, MTT; type: cell-based; details: Homo sapiens; for IC50: A549, 72 h; for inhibition at 16 µg/mL: A549, 16 μg/mL compound, 72 h, read-out: IR (cell proliferation inhibition rate)
Outline: as §2

[12] = system: MG-63 cell line; test: solid tumor cell growth inhibition, MTT; type: cell-based; details: Homo sapiens; for IC50: MG-63, 72 h; for inhibition at 16 µg/mL: MG-63, 16 μg/mL compound, 72 h, read-out: IR (cell proliferation inhibition rate)
Outline: as §2

[13] = system: U87 MG cell line; test: solid tumor cell growth inhibition, MTT; type: cell-based; details: Homo sapiens, U-87 MG, 72 h; for inhibition at 16 µg/mL: 16 μg/mL compound, read-out: IR (cell proliferation inhibition rate)
Outline: as §2

[14] = system: Hep-2 cell line; test: solid tumor cell growth inhibition, MTT; type: cell-based; details: Homo sapiens; for IC50: HEp-2, 72 h; for inhibition at 16 µg/mL: Hep-2, 16 μg/mL compound, 72 h, read-out: IR (cell proliferation inhibition rate)
Outline: as §2

[15] = system: CNE cell line; test: solid tumor cell growth inhibition, MTT; type: cell-based; details: Homo sapiens, 72 h; for inhibition at 16 µg/mL: 16 μg/mL compound, read-out: IR (cell proliferation inhibition rate)
Outline: as §2

[16] = system: PANC-1 cell line; test: solid tumor cell growth inhibition, MTT; type: cell-based; details: Homo sapiens; for IC50: PANC-1, 72 h; for inhibition at 16 µg/mL: PANC-1, 16 μg/mL compound, 72 h, read-out: IR (cell proliferation inhibition rate)
Outline: as §2

[17] = system: RKO cell line; test: solid tumor cell growth inhibition, MTT; type: cell-based; details: Homo sapiens, 72 h; for inhibition at 16 µg/mL: 16 μg/mL compound, read-out: IR (cell proliferation inhibition rate)
Outline: as §2

[18] = system: SK-OV-3 cell line; test: solid tumor cell growth inhibition, MTT; type: cell-based; details: Homo sapiens; for IC50: SK-OV-3, 72 h; for inhibition at 16 µg/mL: SK-OV-3, 16 μg/mL compound, 72 h, read-out: IR (cell proliferation inhibition rate)
Outline: as §2

[19] = system: MGC 803 cell line; test: solid tumor cell growth inhibition, MTT; type: cell-based; details: Homo sapiens; for inhibition at 16 µg/mL: MGC 803, 16 μg/mL compound, 72 h, read-out: IR (cell proliferation inhibition rate); for IC50: MGC 803, 72 h
Outline: as §2

[20] = system: Hep G2 cell line; test: solid tumor cell growth inhibition, MTT; type: cell-based, human; details: Homo sapiens; for inhibition at 16 µg/mL: HepG2, 72 h, Hep G2, 16 μg/mL compound, 72 h, read-out: IR (cell proliferation inhibition rate); for IC50: HepG2, Hep G2, 72 h
Outline: as §2

| Structure (SMILES) | IC50 [1] [µg/mL] | inhibition at 16 µg/mL [1] [%] | inhibition at 16 µg/mL [2] [%] | IC50 [2] [µg/mL] | inhibition at 16 µg/mL [3] [%] | IC50 [3] [µg/mL] | IC50 [4] [µg/mL] | inhibition at 16 µg/mL [4] [%] | inhibition at 16 µg/mL [5] [%] | IC50 [5] [µg/mL] | inhibition at 16 µg/mL [6] [%] | IC50 [6] [µg/mL] | IC50 [7] [µg/mL] | inhibition at 16 µg/mL [7] [%] | inhibition at 16 µg/mL [8] [%] | IC50 [8] [µg/mL] | inhibition at 16 µg/mL [9] [%] | IC50 [9] [µg/mL] | IC50 [10] [µg/mL] | inhibition at 16 µg/mL [10] [%] | also measured |
| --- | --- | --- | --- | --- | --- | --- | --- | --- | --- | --- | --- | --- | --- | --- | --- | --- | --- | --- | --- | --- | --- |
| COC(=O)[C@]12CCC(C)(C)CC1C1=CCC3[C@@]4(C)CC(C(=O)NCCCN5CCOCC5)C(=O)C(C)(C)C4CC[C@@]3(C)[C@]1(C)CC2 (stereo partly drawn) [BS-OA-037] | 8.73 (≈ 13.7 µM) | 95.8 | 97.6 | 4.59 (≈ 7.18 µM) | 80.4 | 11.5 (≈ 17.9 µM) | 1.57 (≈ 2.46 µM) | 97.6 | 63.7 | 13.5 (≈ 21.1 µM) | 99.1 | 2.43 (≈ 3.8 µM) | 18.7 (≈ 29.2 µM) | 44.2 | 82.3 | 11.6 (≈ 18.1 µM) | 8.4 | > 16 | 11 (≈ 17.3 µM) | 93.6 | IC50 [11]: 10.4 µg/mL (≈ 16.3 µM); inhibition at 16 µg/mL [11]: 82%; IC50 [12]: 12.5 µg/mL (≈ 19.5 µM); inhibition at 16 µg/mL [12]: 64.6%; inhibition at 16 µg/mL [13]: 92.6%; IC50 [13]: 11.1 µg/mL (≈ 17.4 µM); IC50 [14]: > 16 µg/mL; inhibition at 16 µg/mL [14]: 25.6%; inhibition at 16 µg/mL [15]: 52.6%; IC50 [15]: 15.5 µg/mL (≈ 24.2 µM); IC50 [16]: > 16 µg/mL; inhibition at 16 µg/mL [16]: 11.3%; inhibition at 16 µg/mL [17]: 62.6%; IC50 [17]: 14.4 µg/mL (≈ 22.5 µM); IC50 [18]: 10.2 µg/mL (≈ 15.9 µM); inhibition at 16 µg/mL [18]: 90.9%; inhibition at 16 µg/mL [19]: 80.5%; IC50 [19]: 10.8 µg/mL (≈ 16.9 µM); inhibition at 16 µg/mL [20]: 95.7%; IC50 [20]: 8.68 µg/mL (≈ 13.6 µM) |
| CN(C)CCCNC(=O)C1C[C@@]2(C)C(CC[C@]3(C)C2CC=C2C4CC(C)(C)CC[C@]4(C(=O)O)CC[C@]23C)C(C)(C)C1=O (stereo partly drawn) [BS-OA-109] | > 16 | 39.4 | 76.6 | 10.8 (≈ 18.5 µM) | 32.3 | > 16 | 6.8 (≈ 11.7 µM) | 86.2 | 36.2 | > 16 | 96 | 6.21 (≈ 10.7 µM) | > 16 | -5.5 | 4.1 | > 16 | 19.7 | > 16 | > 16 | 23.6 | IC50 [11]: > 16 µg/mL; inhibition at 16 µg/mL [11]: 7.5%; IC50 [12]: > 16 µg/mL; inhibition at 16 µg/mL [12]: 18.9%; inhibition at 16 µg/mL [13]: -3.8%; IC50 [13]: > 16 µg/mL; IC50 [14]: > 16 µg/mL; inhibition at 16 µg/mL [14]: 11.3%; inhibition at 16 µg/mL [15]: 36.5%; IC50 [15]: > 16 µg/mL; IC50 [16]: > 16 µg/mL; inhibition at 16 µg/mL [16]: 12.9%; inhibition at 16 µg/mL [17]: -4.9%; IC50 [17]: > 16 µg/mL; IC50 [18]: > 16 µg/mL; inhibition at 16 µg/mL [18]: -13.5%; inhibition at 16 µg/mL [19]: 4.9%; IC50 [19]: > 16 µg/mL; inhibition at 16 µg/mL [20]: 32.1%; IC50 [20]: > 16 µg/mL |
| COC(=O)[C@]12CCC(C)(C)C[C@H]1C1=CC[C@@H]3[C@@]4(C)CC(C(=O)NCCN5CCOCC5)C(=O)C(C)(C)[C@@H]4CC[C@@]3(C)[C@]1(C)CC2 (stereo partly drawn) [BS-OA-059] | 12.7 (≈ 20.4 µM) | 67.7 | 86.7 | 9.74 (≈ 15.6 µM) | 23.8 | > 16 | 8.87 (≈ 14.2 µM) | 80.5 | 48.7 | 16 (≈ 25.6 µM) | 96.6 | 7.18 (≈ 11.5 µM) | > 16 | 34.1 | 34 | > 16 | 4.7 | > 16 | 16 (≈ 25.6 µM) | 51.8 | IC50 [11]: > 16 µg/mL; inhibition at 16 µg/mL [11]: 11.8%; IC50 [12]: > 16 µg/mL; inhibition at 16 µg/mL [12]: 27%; inhibition at 16 µg/mL [13]: 30.6%; IC50 [13]: > 16 µg/mL; IC50 [14]: > 16 µg/mL; inhibition at 16 µg/mL [14]: 0%; inhibition at 16 µg/mL [15]: 20.6%; IC50 [15]: > 16 µg/mL; IC50 [16]: > 16 µg/mL; inhibition at 16 µg/mL [16]: 10.4%; inhibition at 16 µg/mL [17]: 1.8%; IC50 [17]: > 16 µg/mL; IC50 [18]: > 16 µg/mL; inhibition at 16 µg/mL [18]: 35.2%; inhibition at 16 µg/mL [19]: -7.4%; IC50 [19]: > 16 µg/mL; inhibition at 16 µg/mL [20]: 0.6%; IC50 [20]: > 16 µg/mL |
